Measurements as given in patent US20090105119A1, “ASPARAGINE-10-SUBSTITUTED NONADEPSIPEPTIDES” (priority 2006, published 2009).
≈ marks a conversion by molar mass, not a printed value. Read-outs that look alike come from different tables or passages of the source. *1 amine or outer side, *2 acyl side, *3 side chain or, on linkers, in order; H or OH if unused. Where a SMILES comes first, the peptide text is derived from it. Bridges are numbered along the chain shown (N, C = ends). [ ]: non-standard residue; d: D form. Phe(3R-OH) = O=C([C@@H](N[*:1])[C@H](O[*:3])c1ccccc1)[*:2]; X2 = O=C(NCCO)[C@@H](O)[C@H](N[*:1])C(=O)[*:2]; X1 = CNC(=O)[C@@H](O)[C@H](N[*:1])C(=O)[*:2]; Asn(3S-OH) = NC(=O)[C@@H](O)[C@H](N)C(=O)O; Leu(3R-OH) = CC(C)[C@@H](O)[C@H](N)C(=O)O; aThr = C[C@H](O)[C@H](N)C(=O)O

Legend:
[1] = Determination of the free fraction (fu) in plasma; assay type: in vitro ADME; settings: human
Procedure: (§1) Principle of the Determination of the Free Fraction Via Transil:
(§2) The method described here for determining the free fraction (fu) of a test substance is divided into 2 parts:
(§3) a) Determination of the Transil®/buffer distribution ratio (MAbuffer) by incubating the test substance in a Transil®-buffer (pH 7.4) dispersion and subsequently determining the concentration in the dispersion and in the buffer supernatant.
(§4) b) Determination of the Transil®/plasma distribution ratio (MAplasma) by incubating the test substance in a Transil®-plasma dispersion and subsequently determining the concentration in the dispersion and in the plasma.
(§5) The quotient of the two distribution ratios yields fu.
(§6) In the case of highly protein-bound substances, the plasma is usually diluted with isotonic phosphate buffer (pH 7.4) and then suspended with Transil®. The determination of fu′ (free fraction in diluted plasma) in this diluted protein solution takes place in analogy to the determination of fu. The free fraction in undiluted plasma is calculated from fu′ and the dilution factor.
(§7) Concerning this method, compare also: Schuhmacher, Joachim; Kohlsdorfer, Christian; Buehner, Klaus; Brandenburger, Tim; Kruk, Renate, “High-throughput determination of the free fraction of drugs strongly bound to plasma proteins.” Journal of Pharmaceutical Sciences 2004, 93, 816-830.
(§8) Determination of the Membrane Affinity of a Test Substance after Distribution Between Transil® and Buffer (MAbuffer):
(§9) All incubations are carried out in suitable glass vessels, e.g. glass vials, ground-socket test tubes. In general the total volume is 0.5-5 ml, and the Transil® volume 10-100 μl. In cases where the membrane affinities are expected to be high, the Transil® dispersion can be diluted up to 20-fold with phosphate buffer of pH 7.4, e.g. Dulbecco's PBS. Phosphate buffer of pH 7.4 is provided in the incubation vessels, and the Transil® is pipetted in, after thorough mixing. The test substance is pipetted in at a concentration of, for example, 200 ng/mL, n=6. The proportion of organic solvent should be <2%. The mixtures are incubated at room temperature for 30 min, e.g. on a mini-shaker at an angle of about 45°, at about 400 rpm. In order to determine the 100% value at least one aliquot of, for example, 100 μl, is removed and the remaining mixture is centrifuged at about 1800 g for about 10 min. At least 2 aliquots (e.g. 100 μl) of the supernatant are removed from each sample for the determination of the concentration.
(§10) Determination of MAplasma in Undiluted or Diluted Plasma:
(§11) The total incubation volume and the added volume of Transil® depend on the expected free fraction. In general the total volume is 0.5-1 ml, and the Transil® volume is 10-100 μl. In cases where the free fractions are very low, the plasma of the species to be investigated is diluted, with isotonic buffer solution, pH 7.4, e.g. 10-400-fold, and the Transil® is then added. The subsequent procedure takes place as described above for the determination of the MAbuffer values. […]
(§12) The plasma of the species to be investigated is filtered through a semipermeable membrane. The substance concentration in the filtrate is measured and the free fraction fu is calculated therefrom. […] The substance concentration in the ultrafiltrate (Cu; unbound substance concentration) and in the plasma before centrifugation (C; total substance concentration) is measured. The free fraction is calculated by the formula: fu (%)=Cu/C*100.

[2] = tested on: Streptococcus pneumoniae G9a; assay type: cell-based; settings: BHI broth with 10% bovine serum, 10^6 microbes per ml, 10% CO2, 37° C., 18-24 hours
Procedure: (§13) Determination of the Minimum Inhibitory Concentration (MIC):
(§14) The MIC is determined in the liquid dilution test in accordance with the NCCLS guidelines. Overnight cultures of Staphylococcus aureus 133, Enterococcus faecalis 27159, E. faecium 4147 and Streptococcus pneumoniae G9a are incubated with the described test substances in a 1:2 dilution series. The MIC determination is carried out with a cell count of 10^5 microbes per ml in Isosensitest medium (Difco, Irvine/USA), with the exception of S. pneumoniae which is tested in BHI broth (Difco, Irvine/USA) with 10% bovine serum with a cell count of 10^6 microbes per ml. The cultures are incubated at 37° C. for 18-24 hours, S. pneumoniae in the presence of 10% CO2.
(§15) The MIC is defined as the lowest concentration of each substance at which no visible bacterial growth occurs any longer. The MIC values are reported in μg/ml.

[3] = tested on: Staphylococcus aureus 133; assay type: cell-based; settings: Isosensitest medium, 10^5 microbes per ml, 37° C., 18-24 hours
Procedure: as §13, §14, §15

E. faecalis ICB 27159 = assay type: cell-based, Enterococcus faecalis; settings: Isosensitest medium, 10^5 microbes per ml, 37° C., 18-24 hours
Procedure: as §13, §14, §15

[4] = Determination of the free fraction (fu) in plasma; assay type: in vitro ADME, rat; settings: pH 7.4
Procedure: as §1, §2, §3, §4, §5, §6, §7, §8, §9, §10, §11, §12

[5] = read-out: Free fraction (human plasma)
[6] = rat plasma, read-out: Free fraction (rat plasma)

Row | fraction unbound at 30 min [1] | fraction unbound at 30 min, 200 ng/mL ([4]; rat, plasma) | SMILES | fraction unbound at 30 min [1, 5] | MIC S. pneumoniae G9a [2] | MIC S. aureus 133 [3] | MIC E. faecalis ICB 27159 (E. faecalis ICB 27159) | fraction unbound at 30 min, 200 ng/mL [4, 6]
1 |  |  | CC[C@H](C)[C@@H]1NC(=O)[C@@H](CCCNC(=N)N)NC(=O)[C@H](CC(C)C)NC(=O)[C@H]([C@H](O)C(C)C)NC(=O)[C@@H](NC(=O)[C@H](CC(C)C)NC(=O)[C@H](N)CC(C)C)[C@@H](c2ccccc2)OC(=O)[C@H](CO)NC(=O)[C@H]([C@H](O)C(=O)NC)NC(=O)CNC(=O)[C@H]([C@H](C)O)NC1=O [Example 3, N^4.10-Methyl-D-leucyl-L-leucyl-[(3R)-3-hydroxy-L-phenylalanyl]-[(3R)-3-hydroxy-L-leucyl]-L-leucyl-D-arginyl-L-isoleucyl-L-allothreonylglycyl-[(3S)-3-hydroxy-L-asparaginyl]-L-serine C^1.11—O^3.3-lactone Bistrifluoroacetate] (H-[dL]L[Phe(3R-OH)][Leu(3R-OH)]L[dR]I[aThr]G[X1]S; ester 3-C) | 0.051 | 0.5 µg/mL (≈ 0.387 µM) | 0.25 µg/mL (≈ 0.194 µM) | 2 µg/mL (≈ 1.55 µM) | 0.129
2 |  |  | CC[C@H](C)[C@@H]1NC(=O)[C@@H](CCCNC(=N)N)NC(=O)[C@H](CC(C)C)NC(=O)[C@H]([C@H](O)C(C)C)NC(=O)[C@@H](NC(=O)[C@H](CC(C)C)NC(=O)[C@H](N)CC(C)C)[C@@H](c2ccccc2)OC(=O)[C@H](CO)NC(=O)[C@H]([C@H](O)C(=O)NCCO)NC(=O)CNC(=O)[C@H]([C@H](C)O)NC1=O [Example 2, N^4.10-(2-Hydroxyethyl)-D-leucyl-L-leucyl-[(3R)-3-hydroxy-L-phenylalanyl]-[(3R)-3-hydroxy-L-leucyl]-L-leucyl-D-arginyl-L-isoleucyl-L-allothreonylglycyl-[(3S)-3-hydroxy-L-asparaginyl]-L-serine C^1.11—O^3.3-lactone Bistrifluoroacetate] (H-[dL]L[Phe(3R-OH)][Leu(3R-OH)]L[dR]I[aThr]G[X2]S; ester 3-C) | 0.099 | 2 µg/mL (≈ 1.51 µM) | 1 µg/mL (≈ 0.757 µM) | 16 µg/mL (≈ 12.1 µM) | 0.137
3 | 0.0081 | 0.0076 | CC[C@H](C)[C@@H]1NC(=O)[C@@H](CCCNC(=N)N)NC(=O)[C@H](CC(C)C)NC(=O)[C@H]([C@H](O)C(C)C)NC(=O)[C@@H](NC(=O)[C@H](CC(C)C)NC(=O)[C@H](N)CC(C)C)[C@@H](c2ccccc2)OC(=O)[C@H](CO)NC(=O)[C@H]([C@H](O)C(N)=O)NC(=O)CNC(=O)[C@H]([C@H](C)O)NC1=O [1a (Lysobactin), D-Leucyl-N^1-{(3S,6S,12S,15S,18R,21S,24S,27S,28R)-6-[(1S)-2-amino-1-hydroxy-2-oxo-ethyl]-18-(3-{[amino(imino)methyl]amino}propyl)-12-[(1S)-1-hydroxyethyl]-3-(hydroxy-methyl)-24-[(1R)-1-hydroxy-2-methylpropyl]-21-isobutyl-15-[(1S)-1-methylpropyl]-2,5,8,11,14,17,20,23,26-nonaoxo-28-phenyl-1-oxa-4,7,10,13,16,19,22,25-octaazacyclo-octacosan-27-yl}-L-leucinamide Bistrifluoroacetate, reference compound] (H-[dL]L[Phe(3R-OH)][Leu(3R-OH)]L[dR]I[aThr]G[Asn(3S-OH)]S; ester 3-C) |  |  |  |  | 
